Measured values from patent US20230248671A1, “USE OF BETA-1 ADRENERGIC RECEPTOR ANTAGONIST FOR PREPARING COMPOSITIONS FOR REDUCING EPITHELIAL CELL DAMAGE INDUCED BY EPIDERMAL GROWTH FACTOR RECEPTOR INHIBITORS AND INHIBITING CANCER CELLS” (CHANG GUNG MEMORIAL HOSPITAL, LINKOU, priority 2020, published 2023).

How the values were obtained:
in vitro = conditions: human
Description: (§1) A fixed number (7×10^4 cells/dish) of HaCaT cells (human skin keratinocytes) were seeded in each well of a multi-well plate (24 wells). […] MTT (3-(4,5-dimethylthiazol-2-yl)-2,5-diphenyltetrazolium bromide and 300λ bromide-3-(4,5-dimethyl-2-thiazole)-2,5-diphenyltetrazolium) were added and 1 hour later, the supernatant was removed, DMSO was added and the resultant was shook. 200 λ/well of liquid was extracted and added into another multi-well plate (96 wells). ELISA was used to measure the absorbance value (OD570, optical density 570 nm) and calculate the cell cell viability. The experiment was repeated 3 times.
(§2) The MTT test was carried out to examine the effect of β-1 adrenergic receptor antagonists on epithelial cells.
(§3) The MTT test was carried out to examine the effect of first administering β-1 adrenergic receptor antagonist followed by EGFR-TKI on epithelial cells.
(§4) A MTT test was conducted to examine the effect of simultaneously administering a β-1 adrenergic receptor antagonist and an EGFR-TKI on epithelial cells. […] Referring to FIG. 4, FIG. 4 is a schematic diagram showing the c epithelial cell viability after simultaneously contacting an EGFR-TKI and a β-1 adrenergic receptor antagonist with normal epithelial cells.
(§5) The effects on HaCaT cells as well as A549 cancer cells was examined.

[1] = tested on: A549 cancer cells (EGFR-mutated lung cancer cells); experiment: MTT test (cell viability) on A549 cancer cells; format: cell-based
Description: as §1
(§6) The effect of EGFR-TKI alone and the simultaneous administration of a β-1 adrenergic receptor antagonist and an EGFR-TKI on cancer cells was examined.
as §5

[2] = tested on: HaCaT cells (human skin keratinocytes); experiment: in vitro
Description: as §1, §2, §3, §4, §5

[3] = tested on: PC9 cancer cell (EGFR-mutated cancer cell); conditions: afatinib and betaxolol administered simultaneously
Description: as §1, §6

[4] = tested on: EGFR monoclonal antibody-induced papulopustular rash; conditions: 0.25% (w/w) topical, day 30 of treatment
Description: (§7) Patients with EGFR-TKI or anti-EGFR monoclonal antibodies induced epithelial cell damage, for example, rosacea or papulopustular rash, were recruited. A composition comprising β-1 adrenergic receptor antagonist was formulated for topical use, and was administered to recruited patients to observe its therapeutic effect.

EGFRI-induced rosacea = conditions: 0.25% (w/w) topical
Description: as §7

## CN(C)C/C=C/C(=O)Nc1cc2c(Nc3ccc(F)c(Cl)c3)ncnc2cc1O[C@H]1CCOC1 [Afatinib, afatinib]
In vitro
  viability at 24 h, 0.1 μM: 90.6%
  viability at 24 h, 0.5 μM: 89.8%
  viability at 24 h, 1 μM: 87.2%
  viability at 24 h, 2.5 μM: 64.1%
  viability at 24 h, 5 μM: 34.8%
[1]; Homo sapiens, A549
  viability at 1 µM: 101%
  viability at 2.5 µM: 100%
  viability at 5 µM: 85.2%
  viability at 10 µM: 73.4%
  viability at 20 µM: 69.1%
  viability at 50 µM: 26.4%

## CC(C)NCC(O)COc1ccc(CCOCC2CC2)cc1 (centres unmarked) [Betaxolol, betaxolol]
In vitro; Cell viability (%)
  viability at 24 h, 10 μM: 92.8%
  viability at 24 h, 20 μM: 91.3%
  viability at 24 h, 40 μM: 91.4%
  viability at 24 h, 80 μM: 90.1%
  viability at 24 h, 100 μM: 88.1%
In vitro; HaCaT cell viability, β-1 adrenergic receptor antagonist only
  viability at 24 h: 100%
[2]; betaxolol and afatinib added simultaneously, 24 hours
  HaCaT cell viability compared with afatinib only: much improved
[2]; betaxolol only, up to 100 μM
  effect on cell viability of normal epithelial cells (in words): basically does not affect the cell viability
[1]; afatinib and betaxolol together
  inhibitory effect and cytotoxicity on A549 compared with afatinib only: inhibitory effect was better and cytotoxicity is higher
[1]; cells only in contact with betaxolol
  A549 cancer cell viability, betaxolol only: 100%
[3]
  inhibitory effect and cytotoxicity on PC9 compared with afatinib only: inhibitory effect is better and cytotoxicity is higher
[4]
  improvement of papules and pustules of Cetuximab-induced papulopustular rash: significantly improved
EGFRI-induced rosacea; 4th day of treatment
  improvement of osimertinib-induced rosacea: significantly improved
EGFRI-induced rosacea; 7th day of treatment
  improvement of rosacea (FIG. 12): improved significantly
EGFRI-induced rosacea; 14th day of treatment compared to the 1st day
  improvement of afatinib-induced rosacea: significantly improved

## CC(C)(C)NC[C@H](O)COc1nsnc1N1CCOCC1 [timolol, Timolol]
[2]; afatinib concentration fixed, timolol concentration adjusted
  HaCaT cell viability compared with afatinib only: significantly decreased
[1]; timolol and afatinib simultaneously
  A549 cancer cell viability (change, in words): did not change significantly
[1]; timolol increased to 50 μM, with afatinib
  A549 cancer cell viability (change, in words): also increased
